The source of these data is patent publication US20220002816A1, “IDENTIFICATION OF JUND TARGET GENES FOR INHIBITION OF PROSTATE CANCER CELL GROWTH” (Center for Cancer Research & Therapeutic Development, Clark …, priority 2018, published 2022).

What all share (type): cell-based, Human
The subject of experiment [1] is JunD target genes protein levels in DU145 JunD overexpressed (D1) cells. Description: Western blot of JunD target gene protein levels after JQ1 treatment. The conditions noted are these: 5 μM JQ1, 72 hrs. On the procedure:
(§1) DU145 vector and DU145 JunD overexpressed (D1) cells plated at a density of 2×10^4 cells/ml in 24 well plates (for cell proliferation assays) or at a density of 1.5×10^5 cell/ml in 6 well plates (for cell lysates) were treated in the presence or absence of 5 μM JQ1 for 72 hrs. Control cells were treated with DMSO. Cells were then counted using a hemacytometer and cell lysates were collected for western blot analyses.
(§2) Following siRNA transient transfections, PC3 and DU145 cell lysates from several independent experiments were collected as previously described. In brief, equal amounts of protein (50 μg) were separated by electrophoresis using 10% SDS-polyacrylamide gels and then transferred to PVDF membranes (Millipore, Billerica, Mass.). After being blocked with 5% milk, the membranes were incubated with specific primary antibodies (1:800 dilution for JunD; 1:500 dilution for anti-PRDX3, anti-CDK2, anti-CDK4, anti-KIF2C, anti-EIF1, anti-PEA15, anti-CCNA1, anti-ADRA2B, anti-TCF4, anti-ANAX2, anti-ELMO2, and anti-ERO1-La; 1:200 dilution for anti-PLCD4, anti-c-MYC, and anti-PTMA; 1:3000 dilution for anti-α-Tubulin) overnight at 4° C. and then incubated with appropriate horseradish peroxidase-conjugated secondary antibody for 1 h. […] The relative intensities of specific protein were determined by ImageJ software (NIH version: 1.8.0_112).

Experiment [2] concerns JunD target genes protein levels in DU145 vector cells. Described as above. As to conditions: 5 μM JQ1, 72 hrs. The protocol: as §1, §2
For a further experiment, the system named is DU145 vector cells. Description: Cell proliferation assay (cell counting) after JQ1 treatment. As to conditions: 5 μM JQ1, 72 hrs, vs DMSO control, p<0.001. The protocol:
(§3) Human prostate cancer cell lines (PC3 and DU145) were purchased from ATCC (Manassas, Va.). Cells were cultured in the recommended growth media [MEM media supplemented with 5% fetal bovine serum (FBS)] in 100% humidity at 37° C. with 5% CO2 as described previously. DU145 cells overexpressing JunD (D1), generated from a previous study were cultured as above, with an addition of […] G418 [29].
as §1

The test system of experiment [3] is DU145 JunD overexpressed (D1) cells. The description is as above. As to conditions: 5 μM JQ1, 72 hrs, DU145 D1 (JunD overexpressing) cells, vs DMSO control, p<0.001. On the procedure: as §3, §1

Each structure is given as a SMILES string.

Regarding `Cc1sc2c(c1C)C(c1ccc(Cl)cc1)=N[C@@H](CC(=O)OC(C)(C)C)c1nnc(C)n1-2` [JQ1], the “JunD target genes protein levels” value in experiment [1] and in experiment [2] was “decreased” throughout. Further, the cell proliferation entry (in the experiment on DU145 vector cells; in experiment [3]) was “significantly reduced” in each case.
